Assay results: paper PMC12017579, “Phase separation of the PRPP amidotransferase into dynamic condensates promotes de novo purine synthesis in yeast” (PLOS Biology, 2025)
Numbering of substitutions follows the chain as printed.

Columns and labels:
Test in all cases: in vitro condensation assay, fluorescence microscopy of Ade4-mNG particles
Format in all cases: binding
[1] = biological target: T1, Ade4-mNG (yeast PPAT Ade4) (Saccharomyces cerevisiae, UniProt P04046); conditions: inhibits self-assembly, 0.2 µM protein, 10% PEG8K
T1 construct: full length, C-terminal mNeonGreen and Strep-tag II kept; purified from budding yeast cells
T1 sequence (P04046 2-510): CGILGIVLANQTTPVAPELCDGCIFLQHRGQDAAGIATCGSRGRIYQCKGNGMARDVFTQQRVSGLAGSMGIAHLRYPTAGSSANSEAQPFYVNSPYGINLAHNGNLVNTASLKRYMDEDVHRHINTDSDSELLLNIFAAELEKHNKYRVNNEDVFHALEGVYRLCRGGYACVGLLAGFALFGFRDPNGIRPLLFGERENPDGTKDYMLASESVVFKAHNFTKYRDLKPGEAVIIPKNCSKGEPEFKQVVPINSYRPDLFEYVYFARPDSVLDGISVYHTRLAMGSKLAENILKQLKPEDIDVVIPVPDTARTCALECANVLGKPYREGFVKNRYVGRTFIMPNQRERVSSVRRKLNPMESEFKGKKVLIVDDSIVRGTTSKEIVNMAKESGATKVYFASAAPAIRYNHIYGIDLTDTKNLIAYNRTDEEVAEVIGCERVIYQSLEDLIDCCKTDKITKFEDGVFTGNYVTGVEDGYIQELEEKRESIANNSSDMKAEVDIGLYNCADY

[2] = biological target: T2, Ade4-mNG (yeast PPAT Ade4) (Saccharomyces cerevisiae, UniProt P04046, D373A/D374A); conditions: inhibits self-assembly, less than wild type; 1 mM AMP, 0.2 µM protein, 10% PEG8K
T2 construct: full length, C-terminal mNeonGreen and Strep-tag II kept; purified from budding yeast cells
T2 sequence (P04046 2-510 D373A/D374A): T1 sequence (P04046 2-510) with D372A, D373A

Ade4∆IDR-mNG = biological target: T3, Ade4∆IDR-mNG (Saccharomyces cerevisiae, UniProt P04046); conditions: inhibits self-assembly; 500 µM AMP, 0.2 µM protein, 10% PEG8K
T3 construct: C-terminal mNeonGreen and Strep-tag II kept; purified from budding yeast
T3 sequence (P04046 2-480 limits assumed): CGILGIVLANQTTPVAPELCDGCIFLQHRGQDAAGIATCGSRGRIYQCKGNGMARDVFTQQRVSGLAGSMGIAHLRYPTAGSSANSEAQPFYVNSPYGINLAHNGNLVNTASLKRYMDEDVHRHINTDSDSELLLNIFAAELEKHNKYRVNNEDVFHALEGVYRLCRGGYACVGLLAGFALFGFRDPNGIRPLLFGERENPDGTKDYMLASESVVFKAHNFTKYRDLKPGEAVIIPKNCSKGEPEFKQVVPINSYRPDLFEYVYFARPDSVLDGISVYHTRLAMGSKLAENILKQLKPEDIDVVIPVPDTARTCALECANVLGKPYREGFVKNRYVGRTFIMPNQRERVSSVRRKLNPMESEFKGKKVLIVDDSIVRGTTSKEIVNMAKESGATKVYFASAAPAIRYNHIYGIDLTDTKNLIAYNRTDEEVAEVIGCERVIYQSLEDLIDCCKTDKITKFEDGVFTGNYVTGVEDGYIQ

## Nc1ncnc2c1ncn2[C@@H]1O[C@H](COP(=O)(O)OP(=O)(O)O)[C@@H](O)[C@H]1O [ADP]
[1]; 5 mM MgCl2, pH 7.5
  in vitro condensation assay, fluorescence microscopy of Ade4-mNG particles: In the presence of GMP, AMP, ADP, and ATP, the condensation of Ade4-mNG was significantly reduced

## Nc1ncnc2c1ncn2[C@@H]1O[C@H](COP(=O)(O)O)[C@@H](O)[C@H]1O [AMP]
[2]
  in vitro condensation assay, fluorescence microscopy of Ade4-mNG particles: AMP inhibited the assembly of Ade4-DA-mNG condensates, albeit less effectively than that of Ade4-mNG condensates
[1]; 5 mM MgCl2, pH 7.5, counteracted by PRPP
  in vitro condensation assay, fluorescence microscopy of Ade4-mNG particles: In the presence of GMP, AMP, ADP, and ATP, the condensation of Ade4-mNG was significantly reduced
Ade4∆IDR-mNG
  in vitro condensation assay, fluorescence microscopy of Ade4-mNG particles: AMP also suppressed the condensation of Ade4∆IDR-mNG

## Nc1ncnc2c1ncn2[C@@H]1O[C@H](COP(=O)(O)OP(=O)(O)OP(=O)(O)O)[C@@H](O)[C@H]1O [ATP]
[1]; 5 mM MgCl2, pH 7.5
  in vitro condensation assay, fluorescence microscopy of Ade4-mNG particles: In the presence of GMP, AMP, ADP, and ATP, the condensation of Ade4-mNG was significantly reduced

## Nc1nc2c(ncn2[C@@H]2O[C@H](COP(=O)(O)O)[C@@H](O)[C@H]2O)c(=O)[nH]1 [GMP]
[1]; 5 mM MgCl2, pH 7.5
  in vitro condensation assay, fluorescence microscopy of Ade4-mNG particles: In the presence of GMP, AMP, ADP, and ATP, the condensation of Ade4-mNG was significantly reduced

## Nc1ncnc2c1ncn2[C@@H]1O[C@H](CSCC[C@H](N)C(=O)O)[C@@H](O)[C@H]1O [SAH]
[1]; weaker than AMP, 500 µM SAH, 0.5% DMSO
  in vitro condensation assay, fluorescence microscopy of Ade4-mNG particles: exerted approximately one-third the inhibitory effect of AMP
